Laboratory results as given in patent publication US11666589B2, “Pivarubicin and benzarubicin compositions” (Paradox Pharmaceuticals, Inc., priority 2020, dated 2023).
Where “and” joins values, the source holds several entries; their conditions need not be identical. Identical values can stand only once. Like-named read-outs stand apart in the source and are kept apart here.

Assays:
[1] = test system: 32D.3 murine myeloid cells; experiment: Drug biotransformation analysis (HPLC of intracellular drug) in 32D.3 cells; type: in vitro ADME
Text: (§1) Intracellular drug was extracted and analyzed by fluorescence HPLC as described previously.

[2] = test system: 32D.3, J774.2 and 293 cells; experiment: Biotransformation to AD 288 after uptake into cells; type: in vitro ADME; conditions: initial (1 hour), 1 μM
Text: as §1

[3] = target: T1, PKCd (Mus musculus, UniProt P28867); experiment: PKCd translocation (cell fractionation, immunoblot); type: cell-based, murine; conditions: within 4 hours of treatment with 5 μM; 32D.3 cells
T1 construct: endogenous in cells; host or cells: 32D.3 murine myeloid cells
T1 sequence (P28867 whole entry): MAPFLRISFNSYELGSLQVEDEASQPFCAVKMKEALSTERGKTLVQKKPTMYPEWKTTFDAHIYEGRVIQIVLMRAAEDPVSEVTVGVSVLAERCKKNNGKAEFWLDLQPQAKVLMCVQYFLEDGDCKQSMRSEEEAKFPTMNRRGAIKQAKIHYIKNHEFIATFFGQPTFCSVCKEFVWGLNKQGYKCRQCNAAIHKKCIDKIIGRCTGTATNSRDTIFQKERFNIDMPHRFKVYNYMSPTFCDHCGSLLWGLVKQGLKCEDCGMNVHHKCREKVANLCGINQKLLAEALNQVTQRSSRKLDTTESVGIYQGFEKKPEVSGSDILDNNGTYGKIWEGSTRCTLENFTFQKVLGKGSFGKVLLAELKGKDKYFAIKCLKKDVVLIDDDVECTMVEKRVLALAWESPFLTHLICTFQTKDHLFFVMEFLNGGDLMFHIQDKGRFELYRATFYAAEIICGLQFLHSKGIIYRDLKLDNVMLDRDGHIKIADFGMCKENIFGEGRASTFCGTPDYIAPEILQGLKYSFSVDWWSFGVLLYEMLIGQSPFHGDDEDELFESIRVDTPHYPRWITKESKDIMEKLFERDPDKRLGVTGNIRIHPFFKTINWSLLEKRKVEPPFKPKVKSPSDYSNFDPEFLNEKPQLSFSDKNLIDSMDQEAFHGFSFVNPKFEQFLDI
Text: Inhibition of PKCd activity also selectively impedes pivarubicin cytotoxicity.

[4] = test system: 32D.3 cells; experiment: Cell viability by trypan blue with or without rottlerin
Method: (§2) Rottlerin treatment of cells, cell viability analysis by MTT [28] and immunoblot identification of protein expression were performed and described previously.
FIGS. 4A-4D are charts and images from studies of pivarubicin cytotoxicity mediated through PKC-delta (PKCd) activation. For FIG. 4A, 32D.3 cells, suspended in RPMI-1640 medium/10% FCS/IL-3 at a density of 5×10^5 cells/ml, were treated with either DMSO (C) or 5 μM pivarubicin (PIV) for 4 h prior to harvesting, cell fractionation, and immunoblot analysis of PKCd as described previously. For FIG. 4B, 32D.3 cells were pretreated with 10 μM rottlerin for 2 h prior to exposure to 5 μM drug for 1 h at 37° C. Cells were pelleted and washed twice in large volumes of warm PBS, then resuspended in fresh, drug-free medium containing 10 μM rottlerin at 5×10^5 cells/ml and incubated at 37° C. for up to 72 h. At indicated times, aliquots of cells were withdrawn and stained with trypan blue. Viable cells were scored based on the exclusion of stain and gross morphological appearance. For the results shown in FIGS. 4C and 4D, 32D.3 cells were transfected with PKCd siRNA or scrambled siRNA as described in the Materials and Methods section under “Chemicals and Biologicals”. The cells were then assessed for pivarubicin cytotoxicity as for FIG. 4A. Each datum point represents the mean and standard error of at least three independent determinations, each consisting of 300-500 cells per count, when possible.

[5] = test system: human LNCaP prostate cancer cells; experiment: Pivarubicin cytotoxicity after PKCd siRNA transfection; type: cell-based; conditions: PKCd-siRNA-transfected cells
[6] = test system: CEM/VLB-100; experiment: Drug resistance of P-glycoprotein overexpressing CEM/VLB-100 cells; type: cell-based, human; conditions: CEM/VLB-100 versus CCRF-CEM
Method: Pivarubicin used for TNBC studies was synthesized by Dr. John Rimoldi (Univ. of Mississippi) using the previously described protocol. Doxorubicin HCl, rottlerin and all antibodies were purchased from Sigma-Aldrich (St. Louis, Mo.). For in vitro experiments, doxorubicin and pivarubicin were dissolved in DMSO. The final maximum DMSO concentration used for in vitro drug treatments (1% for 72 hours) was not cytotoxic. IL-3-dependent 32D.3 murine myeloid cells, CCRF-CEM human lymphoblastic leukemia cells and multidrug-resistant variants (generous gift of Dr. William T. Beck, St. Jude Children's Research Hospital, Memphis, Tenn.), 293 embryonic human kidney cells and HL-60 human acute myeloid leukemia cells transfected with Bcr-Abl, Bcl-XL or empty expression vectors (generous gift of Dr. Kapil Bhalla, Univ. of Miami) were maintained as previously described. K562 human chronic myelogenous leukemia and LNCaP human prostate cancer cells were purchased from ATCC (Manassas, Va.) and maintained as described by the vendor. LNCaP/Bcl-2 cells were the generous gift of Dr. Ralph Buttyan (Columbia Univ.). Luminescent MDA-MB-231-LM2 (LM-2; metastatic lung subpopulation isolated from human TNBC MDA-MB-231 cells transduced with eIF1a-Luc2-puro lentivirus) were generously provided by Dr. Yibin Kang, Princeton Univ.) and maintained in culture as previously described. […]

[7] = test system: HL-60 cells transfected with Bcr-Abl; experiment: Cytotoxicity in Bcr-Abl transfected HL-60 cells; type: cell-based, human
Method: For the results shown in FIG. 5A, LNCaP cells transfected with Bcl-2 expression vector were assessed for doxorubicin or pivarubicin cytotoxicity, compared to cells transfected with empty vectors. Cells were exposed to 5 μM drug for 1 h, washed, and further incubated for 72 h in drug-free medium. Viability was determined by the MTT assay. For the results shown in FIG. 5B, pivarubicin cytotoxicity in HL-60 cells transfected with Bcr-Abl or Bcl-XL expression vectors were assessed for doxorubicin or pivarubicin cytotoxicity and compared as described for FIG. 5A.

[8] = test system: MDA-MB-231 cells; experiment: MTT cytotoxicity, TNBC monolayer MDA-MB-231; type: cell-based, human; conditions: MDA-MB-231, 48 h
Method: as §2
(§3) Based upon the ability of pivarubicin to circumvent multiple mechanisms of resistance against doxorubicin, we then examined the efficacy of pivarubicin against TNBC in comparison to doxorubicin, using the following procedure, using two basal TNBC cell lines. MDA-MB-231 cells and SUM-159 cells were maintained under adherent monolayer growth conditions. Upon reaching 50% confluency, cells were treated for 48 h with the dose range of doxorubicin or pivarubicin as indicated in FIGS. 6A and 6B.
In the absence of specific receptor targets, the current treatment of metastatic TNBC relies on doxorubicin-based multidrug therapy, with only limited effectiveness. […] Once achieving a primary tumor volume of 150-190 mm^3, mice were randomized into three cohorts for treatment with the MTD of pivarubicin or doxorubicin, or the equivalent volume per body weight of vehicle.

[9] = test system: SUM159 cells; experiment: MTT cytotoxicity, TNBC monolayer SUM159; type: cell-based; conditions: SUM159, 48 h
Method: as §3, with “6B. Cell viability was corrected for death observed in vehicle-only-treated cells (<1% ethanol final well concentration).” for “6B.”

[10] = Maximum tolerated dose in non-tumor-bearing mice; type: in vivo, female NSG mice
Method: The MTD for pivarubicin was 26.6 mg/kg, producing a reversible mean 20% weight loss after two doses, with a third dose producing an irreversible mean weight loss >20%.

[11] = without rottlerin, doxorubicin at IC50 concentration

For COc1cccc2c1C(=O)c1c(O)c3c(c(O)c1C2=O)C[C@@](O)(C(=O)COC(=O)C(C)(C)C)C[C@@H]3O[C@H]1C[C@H](NCc2ccccc2)[C@H](O)[C@H](C)O1 [Pivarubicin, N-Benzyladriamycin-14-pivalate], the “% Parent Compound” value ([1]; 32D.3, 1 hr, 1 μM drug, 37° C.) was 100%, the “% Parent Compound” value ([1]; 32D.3, 8 hr (1 hr drug + 7 hours drug-free medium)) was 96% and the drug initially biotransformed [2] was “less than 10%”. For the same molecule, the PKCd translocation [3] was “translocates from the cytosolic to the membrane fraction”, the “time to 50% cell kill” value ([4]; co-treatment with 10 μM rottlerin) was 24 h and the “time to 50% cell kill” value [4, 11] was at most 6 h. The “increase in concentration required to achieve 50% cell kill” value [5] was 2.5 fold, the resistance [6] was 3 fold and the “effect of Bcr-Abl on cytotoxicity” value [7] was “no inhibitory effect”. For the same molecule, the IC50 [8] was 2.5 µM, the IC90 ([8]; read-out: IC90) was 4.5 µM and 5.1 µM and the IC50 ([9]; MTT, read-out: IC50) was 1.5 µM. For the same molecule, the IC90 ([9]; MTT, read-out: IC90) was 1.7 µM, the “reversible mean weight loss” value ([10]; 26.6 mg/kg, after two doses) was 20% and the “irreversible mean weight loss” value ([10]; 26.6 mg/kg, third dose) was over 20%.

For COc1cccc2c1C(=O)c1c(O)c3c(c(O)c1C2=O)C[C@@](O)(C(=O)CO)C[C@@H]3O[C@H]1C[C@H](N)[C@H](O)[C@H](C)O1 [Doxorubicin, reference compound], the “effect of rottlerin co-treatment on cytotoxicity” value ([4]; 10 μM rottlerin) was “does not alter”, the “time to 50% cell kill” value [4, 11] was 24 h and the resistance [6] was 73 fold. It also gave an IC90 ([8]; Homo sapiens) of over 20 µM, an IC90 [8] of 20 µM and an IC50 [9] of 4 µM. The IC90 [9] was over 20 µM, the “reversible mean weight loss” value ([10]; 1.4 mg/kg after 3 prior escalating doses) was 22% and the “irreversible mean weight loss” value ([10]; 1.8 mg/kg, independent dosing experiment) was over 25%. It also gave an MTD ([10]; i.p. once every 2 weeks) of 1.4 mg/kg.
